Patent US10052311B2, “PPAR compounds for use in the treatment of fibrotic diseases” (INVENTIVA, priority 2014, dated 2018)

Tested on: anti-GBM exposed mice
Assay: Anti-GBM induced glomerulonephritis in mice
Format: in vivo, mouse
Conditions: 10 mg/kg/day po 7 days, vs vehicle

Structure (SMILES): C[C@H](CS)C(=O)N1CCC[C@H]1C(=O)O [captopril, reference compound]
- Col1a expression (kidney): had no effect on Col1a expression
- Col3a expression (kidney): had no effect on Col3a expression
- TGFβR-1 expression (kidney): had no effect on TGFβ-R1 expression
- kidney MCP-1 levels: significantly reduced MCP-1 levels
- kidney osteopontin levels: significantly reduced osteopontin levels
- serum urea levels: reduced urea level without reaching significance
- urinary albumin levels: reduced albumin levels without reaching significance
